Experimental data as given in patent publication US20190211099A1, “METHODS AND COMPOSITIONS FOR TREATING CANCER WITH SIGLEC-9 ACTIVITY MODULATORS” (KING'S COLLEGE LONDON, priority 2016, published 2019).

What was measured:
macrophages = assay: Kynurenine in supernatant of MUC1-ST treated macrophages (Ehrlich Reagent); assay type: cell-based, human
Protocol: Given that IDO catalyzes the rate-limiting step in the metabolism of tryptophan, the tryptophan metabolite kynurenine was detected as follows. 604, supernatant was mixed with 304, 30% trichloroacetic acid (TCA) and incubated for 30 minutes at 50° C. The supernatant was spun at 3000×g and 50 μL was harvested and mixed with 50 μL freshly prepared Ehrlich Reagent (2% p-dimethylaminobenzaldehyde in glacial acetic acid). After 10 minutes optical density (O.D.) was measured at 492 nm, and concentrations were calculated against a kynurenine standard curve. An increase in the tryptophan metabolite kynurenine was observed (FIG. 11D).

[1] = system: recombinant Siglecs 3, 7, 9 and 10; assay: Binding of biotinylated MUC1 glycoforms to plate-bound recombinant Siglec fusion proteins; set-up: species or system human; settings: 2 μg/ml biotinylated MUC1 glycoform, 4 hours; panel Siglec 3, 5, 7, 8, 9 and 10
Protocol: Binding was enhanced when cells were pre-treated with 0.04 U/ml neuraminidase for 30 minutes at 37° C. in PBS (FIG. 3C), which removes competing cis-binding sialic acid sites from the surface of the cells. As this pattern is characteristic of binding to Siglecs (Macauley et al. (2014) NAT. REV. IMMUNOL. 14: 653-666), MUC1-ST binding to Siglecs was tested as follows: mouse anti human IgG was bound to plastic O/N and the plate was blocked using 1% BSA in PBS. Recombinant human Siglec (3, 5, 7, 8, 9 and 10) fusion proteins were added at 2 μg/mL for 2 hours. After incubation with 2 μg/ml biotinylated MUC1 glycoforms for 4 hours, O.D. was measured after the addition of streptavidin-HRP and substrate. […] Although Siglecs 3, 7 and 9 are expressed by monocytes and macrophages (FIG. 3D), a blocking antibody to Siglec-9 inhibited 80-95% of the MUC1-ST binding to these cells (FIGS. 2G-2I, 3E, and 5) indicating this is the dominant binding Siglec. […] Importantly, Siglec-9 bound to the breast cancer cell line T47D that expresses MUC1 carrying sialylated Core-1 glycans (FIG. 2J). Finally, isolated monocytes were bound to 10 μg/mL biotinylated MUC1-ST or 10 μg/mL biotinylated polyacrylamide carrying the ST glycan (PAA-ST; Glycotech).

[2] = system: monocyte derived dendritic cells; assay: Differentiation of monocytes into dendritic cells; assay type: cell-based, human; settings: MUC1-ST on day 0
Protocol: To differentiate monocytes into macrophages, CD14+ cells were plated at a concentration of 1×10^6/mL in AIM V medium (Lonza) with either 50 ng/mL recombinant human M-CSF or 50 ng/mL recombinant human GM-CSF (Bio-Techne). The cytokines were added every 3 days. The cells were incubated at 37° C., 5% CO2 for 7 days to fully differentiate, before being characterized as macrophages via phenotypic flow cytometric analysis. To differentiate monocytes into dendritic cells (moDC), CD14+ cells were plated at a concentration of 1×10^6/mL in AIM V medium with 1500 U/mL recombinant human IL-4 (Bio-Techne) and 400 U/mL human GM-CSF (Bio-Techne) for 6 days to fully differentiate, before being characterized as immature DCs via phenotypic flow cytometric analysis (Epics XL, Beckman Coulter or FACSCalibur, BD Biosciences plus WinMDI or Cellquest software). MoDCs were matured using 1 μg/mL LPS for 24 hours.
In addition, the effects of MUC1-ST on the differentiation of monocytes into dendritic cells were assessed. Briefly, monocytes were treated with MUC1-ST on day 0 and differentiated into immature dendritic cells (DCs) using IL-4 (1500 U/mL) and GM-CSF (400 U/mL) in AIM-V media for 6 days. Immature DCs were matured using 1 μg/mL LPS for 24 hours. […]

CD8+ T cells = assay: Co-culture of MUC1-ST educated M-CSF macrophages with CD3/CD28 stimulated autologous T cells; assay type: cell-based, human; settings: MUC1-ST educated M-CSF macrophages
Protocol: In addition, primary monocytes were induced to differentiate to macrophages in the presence of MUC1-ST and then co-cultured for 48 hours with CD3/CD28 stimulated autologous CD8+ or CD4+ T cells. T cell proliferation and CD69/CD25 cell surface expression were measured using flow cytometry.

“NeuAcα2,3Galβ1-3GalNAc linked via a Ser/Thr of MUC1 [MUC1-ST]” was tested, and the “tryptophan metabolite kynurenine in supernatant” value (macrophages) was “increase”, the “binding to recombinant Siglec fusion proteins” value [1] was “bound” and the “levels of CD86 (immature DCs) and of CD86 and CD83 (matured DCs)” value [2] was “lower levels”. For the same substance, the “activation of CD8+ T cells (expression of CD25 and CD69)” value (CD8+ T cells) was “lower level of activation” and the “proliferation of CD8+ T cells” value (CD8+ T cells; 48 hours co-culture) was “significantly inhibited”.
